Reference: patent publication US20020004209A1, “Use of SLIM3 for binding to molecules” (Schering Aktiengesellschaft Patents, priority 1999, published 2002)

Biological target: T1, androgen receptor (Homo sapiens, UniProt P10275)
T1 construct: expressed in transfected cells; host or cells: 293 cells
T1 sequence (P10275 1-920): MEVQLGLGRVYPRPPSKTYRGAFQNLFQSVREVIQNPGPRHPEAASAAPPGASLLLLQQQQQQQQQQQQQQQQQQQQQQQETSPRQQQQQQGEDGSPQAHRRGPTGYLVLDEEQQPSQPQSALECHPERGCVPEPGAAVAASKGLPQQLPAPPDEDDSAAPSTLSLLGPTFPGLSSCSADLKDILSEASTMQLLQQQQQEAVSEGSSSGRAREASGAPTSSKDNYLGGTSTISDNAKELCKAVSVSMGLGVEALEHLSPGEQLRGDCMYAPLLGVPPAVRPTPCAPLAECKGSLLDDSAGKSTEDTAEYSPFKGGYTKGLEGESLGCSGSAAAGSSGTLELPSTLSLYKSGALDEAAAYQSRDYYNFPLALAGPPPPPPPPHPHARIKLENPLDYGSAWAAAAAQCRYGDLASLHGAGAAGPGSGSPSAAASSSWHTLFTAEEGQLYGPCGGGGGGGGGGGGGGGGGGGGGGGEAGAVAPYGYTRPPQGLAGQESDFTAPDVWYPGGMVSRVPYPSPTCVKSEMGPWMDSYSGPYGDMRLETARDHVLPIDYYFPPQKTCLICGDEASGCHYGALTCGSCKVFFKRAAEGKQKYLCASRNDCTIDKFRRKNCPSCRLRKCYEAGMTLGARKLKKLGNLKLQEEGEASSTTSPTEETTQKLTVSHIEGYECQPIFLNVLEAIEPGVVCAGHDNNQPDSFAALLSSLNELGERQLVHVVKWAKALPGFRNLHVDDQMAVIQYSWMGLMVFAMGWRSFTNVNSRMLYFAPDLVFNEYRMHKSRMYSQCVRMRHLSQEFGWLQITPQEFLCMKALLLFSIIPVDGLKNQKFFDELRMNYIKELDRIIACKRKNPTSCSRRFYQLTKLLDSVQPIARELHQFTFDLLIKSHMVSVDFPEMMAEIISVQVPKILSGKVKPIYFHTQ
T1 sequence (Q14192 1-279 partner): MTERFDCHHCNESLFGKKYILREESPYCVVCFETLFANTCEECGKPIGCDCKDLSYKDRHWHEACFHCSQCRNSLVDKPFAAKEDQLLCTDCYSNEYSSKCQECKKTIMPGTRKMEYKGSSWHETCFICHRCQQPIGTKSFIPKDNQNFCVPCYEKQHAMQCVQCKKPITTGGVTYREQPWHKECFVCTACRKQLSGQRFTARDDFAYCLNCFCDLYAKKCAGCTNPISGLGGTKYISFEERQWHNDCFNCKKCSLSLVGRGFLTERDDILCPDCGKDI
Test: androgen receptor co-activation, MMTV-LUC or proteasin-Luc reporter, transient transfection
Type: cell-based
Details: 293 cells; androgen receptor-expression-plasmid co-transfected

## C[C@]1(O)CC[C@H]2[C@@H]3CCC4=CC(=O)CCC4=C3C=C[C@@]21C [R1881, reference compound]
  transactivation of the reporter gene: transactivated
